Laboratory results published in patent publication US9248122B2, “Heteroquinoline-3-carboxamides as KCNQ2/3 modulators” (GRÜNENTHAL GMBH, priority 2012, dated 2016).

Columns and labels:
KCNQ2/3 channels = molecular target: T1, KCNQ2/3 channels (Homo sapiens, UniProt O43525+O43526); test: Fluorescence assay using a voltage sensitive dye (fluorimetry); assay type: cell-based; settings: CHO-K1 cells expressing KCNQ2/3 channels; for Emax: relative to retigabine = 100%, read-out: Fluorimetry % efficacy (retigabine = 100%)
T1 construct: expressed in transfected cells
Experimental: Pharmacological Experiments Method I. Fluorescence Assay Using a Voltage Sensitive Dye
Human CHO—K1 cells expressing KCNQ2/3 channels are cultivated adherently at 37° C., 5% CO2 and 95% humidity in cell culture bottles (e.g. 80 cm^2 TC flasks, Nunc) with DMEM-high glucose (Sigma Aldrich, D7777) including 10% FCS (PAN Biotech, e.g. 3302-P270521) or alternatively MEM Alpha Medium (lx, liquid, Invitrogen, #22571), 10% fetal calf serum (FCS) (Invitrogen, #10270-106, heat-inactivated) and the necessary selection antibiotics.
Before being sown out for the measurements, the cells are washed with a 1×DPBS buffer without Ca^2+/Mg^2+ (e.g. Invitrogen, #14190-094) and detached from the bottom of the culture vessel by means of Accutase (PAA Laboratories, #L11-007) (incubation with Accutase for 15 min at 37° C.). The cell count then present is determined using a CASY™ cell counter (TCC model, Scharfe System) in order subsequently to apply, depending on the density optimization for the individual cell line, 20,000-30,000 cells/well/100 μl of the described nutrient medium to 96-well measuring plates of the Corning™ CeIIBIND™ type (Flat Clear Bottom Black Polystyrene Microplates, #3340). Incubation is then carried out for one hour at room temperature, without gassing or adjusting the humidity, followed by incubation for 24 hours at 37° C., 5% CO2 and 95% humidity.
The voltage-sensitive fluorescent dye from the Membrane Potential Assay Kit (Red™ Bulk format part R8123 for FLIPR, MDS Analytical Technologies™) is prepared by dissolving the contents of a vessel Membrane Potential Assay Kit Red Component A in 200 ml of extracellular buffer (ES buffer, 120 mM NaCl, 1 mM KCl, 10 mM HEPES, 2 mM CaCl2, 2 mM MgCl2, 10 mM glucose; pH 7.4). After removal of the nutrient medium, the cells are washed with 200 μl of ES buffer, then covered with a layer of 100 μl of the dye solution prepared above and incubated for 45 min at room temperature with the exclusion of light.
The fluorescence measurements are carried out with a BMG Labtech FLUOstar™, BMG Labtech NOVOstar™ or BMG Labtech POLARstar™ instrument (525 nm excitation, 560 nm emission, Bottom Read mode). After incubation of the dye, 50 μl of the test substances in the desired concentrations, or 50 μl of ES buffer for control purposes, are introduced into separate cavities of the measuring plate and incubated for 30 min at room temperature while being shielded from light. The fluorescence intensity of the dye is then measured for 5 min and the fluorescence value F1 of each well is thus determined at a given, constant time. 15 μl of a […] KCl solution ([…]) are then added to each well. The change in fluorescence is subsequently measured until all the relevant measured values have been obtained (mainly 5-30 min). At a given time after KCl application, a fluorescence value F2 is determined, in this case at the time of the fluorescence peak.
For calculation, the fluorescence intensity F2 is corrected for the fluorescence intensity F1, and the activity (ΔF/F) of the target compound on the potassium channel is determined as follows:
In order to determine whether a substance has agonistic activity,
A substance has an agonistic activity on the potassium channel if
Calculations of EC50 and IC50 values are carried out with the aid of ‘Prism v4.0’ software (GraphPad Software™)

[1] = test system: withdrawal reflex of the rat tail (tail flick); test: Low-intensity tail flick test (rat); assay type: in vivo; settings: dose 10 mg/kg
Experimental: Method II. Low-Intensity Tail Flick Test (Rat)
In the low-intensity tail flick test, the determination of the antinociceptive effect of the compounds according to the invention towards an acute noxious thermal stimulus is carried out by measuring the withdrawal reflex of the rat tail (tail flick) in response to a radiant heat beam (analgesia meter; model 2011 of the company Rhema Labortechnik, Hofheim, Germany) according to the method described by D'Amour and Smith (J. Pharm. Exp. Ther. 72, 74 79 (1941). To this end, the rats were placed in a plexiglas restrainer, and a low-intensity radiant heat beam (48° C.) was focused onto the dorsal surface of the tail root. The stimulus intensity was adjusted to result in a mean pre-drug control withdrawal latency of about 7 s, thus also allowing a supraspinal modulation of the spinally mediated acute nociceptive reflex. […] Before administration of a compound according to the invention, the animals were pre-tested twice in the course of five minutes and the mean of these measurements was calculated as the pre-test mean. The antinociceptive effect was determined at 20, 40 and 60 min after peroral compound administration. The antinociceptive effect was calculated based on the increase in the tail withdrawal latency according to the following formula and is expressed as percentage of the maximum possible effect (MPE [%]): MPE=[(T1−T0)/(T2−T0)]*100 […]

| SMILES | Emax (KCNQ2/3 channels) [%] | EC50 (KCNQ2/3 channels) [nM] | Low intensity tail flick, rat, peroral, ED50 or MPE (dose) [mg/kg] [1] |
| --- | --- | --- | --- |
| CCSc1nc2sccc2c(C)c1C(=O)NCc1cccc(F)c1 [Example 4, 6-Ethylsulfanyl-N-[(3-fluorophenyl)-methyl]-4-methyl-thieno[2,3-b]pyridine-5-carboxylic acid amide] | 31 | – | – |
| CCOc1nc2cc(C(F)(F)F)sc2c(C)c1C(=O)NCc1cccc(F)c1 [Example 5, 5-Ethoxy-N-[(3-fluorophenyl)-methyl]-7-methyl-2-(trifluoromethyl)-thieno[3,2-b]pyridine-6-carboxylic acid amide] | 121 | 51 | – |
| CCSc1nc2ccncc2c(C)c1C(=O)NCc1cccc(F)c1 [Example 13, 2-Ethylsulfanyl-N-[(3-fluorophenyl)-methyl]-4-methyl-[1,6]naphthyridine-3-carboxylic acid amide] | 32 | – | – |
| CCSc1nc2ccncc2c(C)c1C(=O)NCc1ccc(F)cc1 [Example 3, 2-Ethylsulfanyl-N-[(4-fluorophenyl)-methyl]-4-methyl-[1,6]naphthyridine-3-carboxylic acid amide] | 34 | – | – |
| CCSc1nc2cnccc2c(C)c1C(=O)NCc1ccc(F)cc1 [Example 15, 2-Ethylsulfanyl-N-[(4-fluorophenyl)-methyl]-4-methyl-[1,7]naphthyridine-3-carboxylic acid amide] | 34 | – | – |
| CCSc1nc2cc(C(F)(F)F)ncc2c(C)c1C(=O)NCc1ccc(F)cc1 [Example 12, 2-Ethylsulfanyl-N-[(4-fluorophenyl)-methyl]-4-methyl-7-(trifluoromethyl)-[1,6]naphthyridine-3-carboxylic acid amide] | 97 | 301 | – |
| CCSc1nc2ccsc2c(C)c1C(=O)NCc1cccc(F)c1 [Example 14, 5-Ethylsulfanyl-N-[(3-fluorophenyl)-methyl]-7-methyl-thieno[3,2-b]pyridine-6-carboxylic acid amide] | -39 | 650 | – |
| CCSc1nc2cc(C(F)(F)F)cnc2c(C)c1C(=O)NCc1cccc(F)c1 [Example 1, 2-Ethylsulfanyl-N-[(3-fluorophenyl)-methyl]-4-methyl-7-(trifluoromethyl)-[1,5]naphthyridine-3-carboxylic acid amide] | 156 | 84 | – |
| CCSc1nc2cccnc2c(C)c1C(=O)NCc1cccc(F)c1 [Example 8, 2-Ethylsulfanyl-N-[(3-fluorophenyl)-methyl]-4-methyl-[1,5]naphthyridine-3-carboxylic acid amide] | 9 | – | – |
| CCSc1nc2cccnc2c(C)c1C(=O)NCc1ccc(F)cc1 [Example 9, 2-Ethylsulfanyl-N-[(4-fluorophenyl)-methyl]-4-methyl-[1,5]naphthyridine-3-carboxylic acid amide] | 6 | – | – |
| CCSc1nc2cc(C(F)(F)F)cnc2c(C)c1C(=O)NCc1ccc(F)cc1 [Example 10, 2-Ethylsulfanyl-N-[(4-fluorophenyl)-methyl]-4-methyl-7-(trifluoromethyl)-[1,5]naphthyridine-3-carboxylic acid amide] | 148 | 101 | – |
| CCSc1nc2ncccc2c(C)c1C(=O)NCc1ccc(F)cc1 [Example 16, 2-Ethylsulfanyl-N-[(4-fluorophenyl)-methyl]-4-methyl-[1,8]naphthyridine-3-carboxylic acid amide] | 10 | – | – |
| CCSc1nc2nc(C(F)(F)F)ccc2c(C)c1C(=O)NCc1ccc(F)cc1 [Example 7, 2-Ethylsulfanyl-N-[(4-fluorophenyl)-methyl]-4-methyl-7-(trifluoromethyl)-[1,8]naphthyridine-3-carboxylic acid amide] | 132 | 412 | 16 (10) % |
| CCOc1nc2sc(C(F)(F)F)cc2c(C)c1C(=O)NCc1cccc(F)c1 [Example 18, 6-Ethoxy-N-[(3-fluorophenyl)-methyl]-4-methyl-2-(trifluoromethyl)-thieno[2,3-b]pyridine-5-carboxylic acid amide] | 112 | 63 | – |
| CCSc1nc2cnccc2c(C)c1C(=O)NCc1cccc(F)c1 [Example 2, 2-Ethylsulfanyl-N-[(3-fluorophenyl)-methyl]-4-methyl-[1,7]naphthyridine-3-carboxylic acid amide] | 62 | 2190 | – |
| CCSc1nc2nc(C(F)(F)F)ccc2c(C)c1C(=O)NCc1cccc(F)c1 [Example 6, 2-Ethylsulfanyl-N-[(3-fluorophenyl)-methyl]-4-methyl-7-(trifluoromethyl)-[1,8]naphthyridine-3-carboxylic acid amide] | 152 | 683 | – |
| CCSc1nc2ncccc2c(C)c1C(=O)NCc1cccc(F)c1 [Example 17, 2-Ethylsulfanyl-N-[(3-fluorophenyl)-methyl]-4-methyl-[1,8]naphthyridine-3-carboxylic acid amide] | 10 | – | – |
| CCSc1nc2cc(C(F)(F)F)ncc2c(C)c1C(=O)NCc1cccc(F)c1 [Example 11, 2-Ethylsulfanyl-N-[(3-fluorophenyl)-methyl]-4-methyl-7-(trifluoromethyl)-[1,6]naphthyridine-3-carboxylic acid amide] | 101 | 201 | – |
